Results as given in patent publication US12441768B2, “Compositions and methods for treating endometriosis” (EndoMet Biosciences, Inc., priority 2018, dated 2025).
Like-named read-outs stand apart in the source and are kept apart here. Where a SMILES comes first, the peptide text is derived from it. [ ]: non-standard residue; d: D form. The star is where a group is joined. ξ: configuration not given here. NMeW = CN[C@@H](Cc1c[nH]c2ccccc12)C(=O)O; Palmitoyl = CCCCCCCCCCCCCCCC(=O)*; ξαMeV = CC(C)C(C)(N)C(=O)O; ξαMeS = CC(N)(CO)C(=O)O; GABA = NCCCC(=O)O

Assays:
[1] = target: Wnt-responsive promoter (TCF/LEF); assay: Wnt-dependent luciferase reporter assay; type: cell-based, murine
Experimental: The luciferase reporter assay is commonly used as a tool to study gene expression at the transcriptional level. Peptides from libraries described herein were characterized for ability to suppress transcription in cells with luciferase expression controlled by a Wnt-responsive promoter. Peptides were added to cells transfected with luciferase gene downstream of a Wnt-responsive promoter. Cells were stimulated with Wnt3a protein and incubated with peptides from libraries described herein. Luminescence was recorded to determine the peptides with the highest β-catenin-inhibiting activity. EC50 values were calculated based on the inhibition of luminescence and expressed as concentration (uM) in Table 5.
Peptides were assessed for their ability to inhibit Wnt signaling. Murine 3T3 fibroblasts that express luciferase under a Wnt-responsive promoter (TCF/LEF) (Enzo Life Sciences, Farmingdale, NY) were stimulated with Wnt3a in the presence of increasing concentrations of peptide inhibitor (Hit 1: SEQ ID NO:217, Hit 2: SEQ ID NO:224, Hit 3: SEQ ID NO:228, Hit 4: SEQ ID NO:227, Hit 5: SEQ ID NO:220, Hit 6: SEQ ID NO:168. Hit 7: SEQ ID NO:226) or with vehicle control (FIG. 2A).

[2] = target: T1, β-catenin (Homo sapiens, UniProt P35222); assay: KD50 measurement using competitive fluorescence polarization (FP) with labelled TCF4; type: binding; conditions: fluorescence polarization, β-catenin
T1 sequence (P35222 1-781): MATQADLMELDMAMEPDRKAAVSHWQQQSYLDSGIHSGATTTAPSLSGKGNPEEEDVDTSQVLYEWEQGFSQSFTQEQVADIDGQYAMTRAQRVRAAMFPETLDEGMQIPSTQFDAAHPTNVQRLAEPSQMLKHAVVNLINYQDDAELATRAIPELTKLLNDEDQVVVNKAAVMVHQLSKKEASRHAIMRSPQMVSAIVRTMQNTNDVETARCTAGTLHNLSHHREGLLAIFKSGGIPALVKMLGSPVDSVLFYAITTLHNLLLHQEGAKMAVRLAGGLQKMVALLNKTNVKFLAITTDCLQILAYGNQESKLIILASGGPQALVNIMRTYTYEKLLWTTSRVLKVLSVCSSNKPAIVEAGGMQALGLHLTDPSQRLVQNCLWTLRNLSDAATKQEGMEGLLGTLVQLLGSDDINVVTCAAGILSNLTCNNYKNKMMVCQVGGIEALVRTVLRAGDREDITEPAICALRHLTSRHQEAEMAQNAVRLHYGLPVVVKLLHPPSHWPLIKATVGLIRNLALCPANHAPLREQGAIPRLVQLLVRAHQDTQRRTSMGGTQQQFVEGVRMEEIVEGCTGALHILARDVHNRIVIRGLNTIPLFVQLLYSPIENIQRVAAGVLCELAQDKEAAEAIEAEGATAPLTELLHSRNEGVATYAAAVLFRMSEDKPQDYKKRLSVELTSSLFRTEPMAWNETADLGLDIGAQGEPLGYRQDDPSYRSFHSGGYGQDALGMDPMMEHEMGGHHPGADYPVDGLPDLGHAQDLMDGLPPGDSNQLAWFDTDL
Procedure, shortened: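 5 nM labelled TCF4 was combined with 100 nM β-catenin at room temperature, then inhibitor was titrated in serial dilutions from 10 nM to 30 uM. Polarization was read at excitation 470 nm, emission 520 nm; displacement lowers the signal. Three independent experiments.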

Row | SMILES | EC50 [1] [µM] | β-Cat FP Hill slope [2] | Kd ([2]; read-out: β-Cat FP KD) [µM] | Kd ([2]; β-Cat FP KD) [µM]
1 | CC[C@H](C)[C@H](NC(=O)[C@H](CO)NC(=O)[C@H](CCC(=O)O)NC(=O)[C@H](Cc1c[nH]c2ccccc12)NC(=O)[C@@H](N)CCSC)C(=O)N[C@@H](CC(C)C)C(=O)N[C@@H](CC(=O)O)C(=O)N[C@@H](CCC(=O)O)C(=O)N[C@@H](Cc1c[nH]cn1)C(=O)NC(C)(C(=O)N[C@@H](CCC(N)=O)C(=O)N[C@@H](CCCNC(=N)N)C(=O)N[C@H](C(=O)N[C@@H](Cc1c[nH]c2ccccc12)C(=O)NCC(N)=O)C(C)C)C(C)C (stereo partly shown) [compound 34] (HELM PEPTIDE1{M.W.E.S.I.L.D.E.H.[CC(C)C(C)(N[*:1])C(=O)[*:2]].Q.R.V.W.G.[am]}$$$$V2.0) | > 30 | 0.92 | < 0.4 | 
2 | CC[C@H](C)[C@@H]1NC(=O)[C@@H](NC(=O)[C@H](CCC(N)=O)NC(=O)[C@H](C)N(C)C(=O)[C@H](Cc2c[nH]c3ccccc23)NC(C)=O)CCCCNC(=O)CC[C@@H](C(=O)N[C@@H](Cc2c[nH]cn2)C(=O)N[C@H](C(=O)N[C@@H](CCC(N)=O)C(=O)N[C@@H](CCCNC(=N)N)C(=O)N[C@H](C(=O)N[C@@H](Cc2c[nH]c3ccccc23)C(=O)NCC(N)=O)C(C)C)C2CCCCC2)NC(=O)[C@H](CC(=O)O)NC(=O)[C@H](CC(C)C)NC1=O [compound 404] (HELM PEPTIDE1{[ac].W.[meA].Q.K.I.L.D.E.H.[O=C([C@@H](N[*:1])C1CCCCC1)[*:2]].Q.R.V.W.G.[am]}$PEPTIDE1,PEPTIDE1,5:R3-9:R3$$$V2.0) | > 30 | 0.79 | < 0.4 | 
3 | CC[C@H](C)[C@@H]1NC(=O)[C@@H](NC(=O)[C@H](CCC(N)=O)NC(=O)[C@H](C)N(C)C(=O)[C@H](Cc2c[nH]c3ccccc23)NC(C)=O)CCCCNC(=O)C[C@@H](C(=O)N[C@@H](Cc2c[nH]cn2)C(=O)N[C@H](C(=O)N[C@@H](CCC(N)=O)C(=O)N[C@@H](C)C(=O)N[C@H](C(N)=O)C(C)C)C2CCCCC2)NC(=O)[C@H](CC(N)=O)NC(=O)[C@H](CC(C)C)NC1=O [compound 452] (HELM PEPTIDE1{[ac].W.[meA].Q.K.I.L.N.D.H.[O=C([C@@H](N[*:1])C1CCCCC1)[*:2]].Q.A.V.[am]}$PEPTIDE1,PEPTIDE1,5:R3-9:R3$$$V2.0) | 15 to 22.5 | 0.7 |  | 0.4 to 1
4 | CCCCCCCCCCCCCCCC(=O)N[C@@H](Cc1c[nH]c2ccccc12)C(=O)N(C)[C@@H](Cc1c[nH]c2ccccc12)C(=O)N[C@@H](CCC(=O)O)C(=O)NC(C)(CO)C(=O)N[C@H](C(=O)N[C@@H](CC(C)C)C(=O)N[C@@H](CC(=O)O)C(=O)N[C@@H](CCC(=O)O)C(=O)N[C@@H](Cc1c[nH]cn1)C(=O)NC(C)(C(=O)N[C@@H](CCC(N)=O)C(=O)N[C@@H](CCCNC(=N)N)C(=O)N[C@H](C(=O)N[C@@H](Cc1c[nH]c2ccccc12)C(=O)O)C(C)C)C(C)C)[C@@H](C)CC (stereo partly shown) [compound 397] (Palmitoyl-W[NMeW]E[ξαMeS]ILDEH[ξαMeV]QRVW-OH) | 7.5 to 15 |  | > 30 | 
5 | CC[C@H](C)[C@H](NC(=O)[C@H](CO)NC(=O)[C@H](CCC(=O)O)NC(=O)[C@H](Cc1c[nH]c2ccccc12)N(C)C(=O)[C@H](Cc1c[nH]c2ccccc12)NC)C(=O)N[C@@H](CC(C)C)C(=O)N[C@@H](CC(=O)O)C(=O)N[C@@H](CCC(=O)O)C(=O)N[C@@H](Cc1c[nH]cn1)C(=O)N[C@H](C(=O)N[C@@H](CCC(N)=O)C(=O)N[C@@H](CCCNC(=N)N)C(=O)N[C@H](C(=O)N[C@@H](Cc1c[nH]c2ccccc12)C(=O)NCC(N)=O)C(C)C)C(C)C [compound 37] (HELM PEPTIDE1{[meW].[meW].E.S.I.L.D.E.H.V.Q.R.V.W.G.[am]}$$$$V2.0) | > 30 | 0.7 | < 0.4 | 
6 | CCCCCCCCCCCCCCCC(=O)NCCCC(=O)N[C@@H](Cc1c[nH]c2ccccc12)C(=O)N(C)[C@@H](Cc1c[nH]c2ccccc12)C(=O)N[C@@H](CCC(=O)O)C(=O)NC(C)(CO)C(=O)N[C@H](C(=O)N[C@@H](CC(C)C)C(=O)N[C@@H](CC(=O)O)C(=O)N[C@@H](CCC(=O)O)C(=O)N[C@@H](Cc1c[nH]cn1)C(=O)NC(C)(C(=O)N[C@@H](CCC(N)=O)C(=O)N[C@@H](CCCNC(=N)N)C(=O)N[C@H](C(=O)N[C@@H](Cc1c[nH]c2ccccc12)C(=O)O)C(C)C)C(C)C)[C@@H](C)CC (stereo partly shown) [compound 400] ({Palmitoyl-GABA}-W[NMeW]E[ξαMeS]ILDEH[ξαMeV]QRVW-OH) | 7.5 to 15 |  |  | 
7 | CCCCCCCCCCCCCCCC(=O)NCC(=O)N[C@@H](Cc1c[nH]c2ccccc12)C(=O)N(C)[C@@H](Cc1c[nH]c2ccccc12)C(=O)N[C@@H](CCC(=O)O)C(=O)NC(C)(CO)C(=O)N[C@H](C(=O)N[C@@H](CC(C)C)C(=O)N[C@@H](CC(=O)O)C(=O)N[C@@H](CCC(=O)O)C(=O)N[C@@H](Cc1c[nH]cn1)C(=O)NC(C)(C(=O)N[C@@H](CCC(N)=O)C(=O)N[C@@H](CCCNC(=N)N)C(=O)N[C@H](C(=O)N[C@@H](Cc1c[nH]c2ccccc12)C(=O)O)C(C)C)C(C)C)[C@@H](C)CC (stereo partly shown) [compound 398] (Palmitoyl-GW[NMeW]E[ξαMeS]ILDEH[ξαMeV]QRVW-OH) | 7.5 to 15 |  |  | 
8 | CC(C)C[C@@H]1NC(=O)[C@H](C2CCCCC2)NC(=O)[C@@H](NC(=O)[C@H](CCC(N)=O)NC(=O)[C@H](C)N(C)C(=O)[C@@H](N)Cc2c[nH]c3ccccc23)CCCCNC(=O)CC[C@@H](C(=O)N[C@@H](Cc2c[nH]cn2)C(=O)N[C@H](C(=O)N[C@@H](CCC(N)=O)C(=O)N[C@@H](CCCNC(=N)N)C(=O)N[C@H](C(=O)N[C@@H](Cc2c[nH]c3ccccc23)C(=O)NCC(N)=O)C(C)C)C(C)C)NC(=O)[C@H](CC(=O)O)NC1=O [compound 420] (HELM PEPTIDE1{W.[meA].Q.K.[O=C([C@@H](N[*:1])C1CCCCC1)[*:2]].L.D.E.H.V.Q.R.V.W.G.[am]}$PEPTIDE1,PEPTIDE1,4:R3-8:R3$$$V2.0) |  | 0.7 | 0.4 to 1 | 
9 | CCCCCCCCC(=O)N[C@@H](Cc1c[nH]c2ccccc12)C(=O)N(C)[C@@H](C)C(=O)N[C@@H](CCC(N)=O)C(=O)N[C@@H](CO)C(=O)N[C@H](C(=O)N[C@@H](CC(C)C)C(=O)N[C@@H](CC(=O)O)C(=O)N[C@H]1CCC(=O)NCCCC[C@@H](C(=O)N[C@H](C(=O)N[C@@H](Cc2c[nH]c3ccccc23)C(=O)NCC(N)=O)C(C)C)NC(=O)[C@H](CCC(N)=O)NC(=O)[C@H](C(C)C)NC(=O)[C@H](Cc2c[nH]cn2)NC1=O)[C@@H](C)CC [compound 438] (HELM PEPTIDE1{[CCCCCCCCC(=O)[*:2]].W.[meA].Q.S.I.L.D.E.H.V.Q.K.V.W.G.[am]}$PEPTIDE1,PEPTIDE1,9:R3-13:R3$$$V2.0) |  |  | < 0.4 | 
10 | CC[C@H](C)[C@H](NC(=O)[C@H](CC(C)C)NC(=O)[C@@H](NC(=O)[C@@H](N)Cc1c[nH]c2ccccc12)[C@@H](C)CC)C(=O)N[C@@H](C)C(=O)N[C@@H](Cc1ccccc1)C(=O)N[C@@H](Cc1c[nH]c2ccccc12)C(=O)NCC(=O)O [compound 265] (H-WILIAFWG-OH) |  | 0.7 | 1 to 10 | 
11 | CC[C@H](C)[C@H](NC(=O)[C@H](CO)NC(=O)[C@H](CCC(N)=O)NC(=O)[C@H](C)N(C)C(=O)[C@H](Cc1c[nH]c2ccccc12)NC(C)=O)C(=O)N[C@@H](CC(C)C)C(=O)N[C@@H](CC(=O)O)C(=O)N[C@H]1CCCCNC(=O)C[C@@H](C(=O)N[C@H](C(=O)N[C@@H](Cc2c[nH]c3ccccc23)C(N)=O)C(C)C)NC(=O)[C@H](CCC(N)=O)NC(=O)[C@H](C2CCCCC2)NC(=O)[C@H](Cc2c[nH]cn2)NC1=O [compound 460] (HELM PEPTIDE1{[ac].W.[meA].Q.S.I.L.D.K.H.[O=C([C@@H](N[*:1])C1CCCCC1)[*:2]].Q.D.V.W.[am]}$PEPTIDE1,PEPTIDE1,9:R3-13:R3$$$V2.0) |  | 0.7 | < 0.4 | 
12 | CC[C@H](C)[C@H](NC(=O)[C@H](C)NC(=O)[C@H](Cc1ccccc1)NC(=O)[C@H](Cc1c[nH]c2ccccc12)NC(=O)[C@@H](N)CCSC)C(=O)N[C@@H](CO)C(=O)N[C@@H](Cc1ccccc1)C(=O)N[C@@H](Cc1c[nH]c2ccccc12)C(=O)NCC(=O)O [compound 12] (H-MWFAISFWG-OH) |  | 0.5 | 1 to 10 | 
